Source: patent US12617779B2, “Self degradation-type CDK9 inhibitor prodrug and liposome encapsulating same” (Sumitomo Pharma Co., Ltd., priority 2021, dated 2026)

Key:
[1] = Stability evaluation of solution formulation (Experimental Example 2); type: physicochemical; details: for Production rate of Alvocidib / Residual rate: solution formulation
Protocol: For Example 1, Example 2, Example 5, Example 6, Comparative Example 13 and Comparative Example 14, the attrition rate of the test compound and the conversion rate of the test compound to Alvocidib in a solution formulation were calculated by the following method.
Example 1, Example 2, Example 5, Example 6, Comparative Example 13 and Comparative Example 14 were each added to buffer solutions adjusted to pH 3.0, 4.0 and 5.0, respectively, at a concentration of 0.1 mg/mL, and left at 5° C. After 0, 1, 2 and 4 weeks, the residual rates of the compounds of Example 1, Example 2, […], Comparative Example 13 and Comparative Example 14 and the production rate of Alvocidib were determined by HPLC.
The buffer solutions used at each pH are as follows. • pH 3.0: 5 mM tartrate buffer solution/10% sucrose solution (pH 3.0) • pH 4.0: 5 mM tartrate buffer solution/10% sucrose solution (pH 4.0) • pH 5.0: 5 mM tartrate buffer solution/10% sucrose solution (pH 5.0)
(§1) The measurement conditions for HPLC are as follows.
• column: Acquity UPLC BEH C18, 1.7 um, 50×2.1 mm • column temperature: 40° C. • mobile phase: • A: water containing 0.1% trifluoroacetic acid • B: acetonitrile • A/B (min): • 80/20(0)→75/25(3)→0/100(3.5)→0/100(4)→80/20(4.01)→80/20(5) • flow rate: 0.8 mL/min • detection: ultraviolet visible detector, measurement wavelength 254 nm • injection: 3 μL

[2] = Evaluation of conversion rate to active form in buffer solution (Experimental Example 1); type: physicochemical
Protocol: For Examples 1 to 16 and Comparative Examples 1 to 14, the attrition rate of the test compound and the conversion rate of the test compound to Alvocidib in a buffer solution were calculated by the following method.
Examples 1 to 16 and Comparative Examples 1 to 14 were each left in buffer solutions adjusted to pH 5.0, 5.5, 6.0, 6.5, 7.0 and 7.4, respectively, at a concentration of 25 umol/L at 37° C. After 0, 0.5, 1, 2 and 3 hours, the residual rates of the compounds of Examples […] and the production rate of Alvocidib were determined by HPLC.
The buffer solutions used at each pH are as follows. • pH 5.0: 50 mM citrate buffer solution (pH 5.0) • pH 5.5: 50 mM citrate buffer solution (pH 5.5) • pH 6.0: 50 mM phosphate buffer solution (pH 6.0) • pH 6.5: 50 mM phosphate buffer solution (pH 6.5) • pH 7.0: 50 mM phosphate buffer solution (pH 7.0) • pH 7.4: 50 mM phosphate buffer solution (pH 7.4)
as §1

SMILES: CNCCN(C)C(=O)Oc1cc(O)c2c(=O)cc(-c3ccccc3Cl)oc2c1[C@H]1CCN(C)C[C@H]1O [Comparative Example 14, reference compound]
- Stability / conversion to Alvocidib in solution formulation at pH 3 ([1]; pH 3, 5° C., up to 4 weeks): gradually converted to Alvocidib
- Conversion to Alvocidib in solution formulation at pH 5 after 4 weeks ([1]; pH 5, 5° C., after 4 weeks): almost completely converted to Alvocidib
- Production rate of Alvocidib ([1]; pH3.0, 0 week): 1.3%
- Residual rate ([1]; pH3.0, 0 week): 98.5%
- Production rate of Alvocidib ([1]; pH3.0, 1 week): 2.7%
- Residual rate ([1]; pH3.0, 1 week): 97.1%
- Production rate of Alvocidib ([1]; pH3.0, 2 week): 3.9%
- Residual rate ([1]; pH3.0, 2 week): 95.8%
- Production rate of Alvocidib ([1]; pH3.0, 4 week): 6.1%
- Residual rate ([1]; pH3.0, 4 week): 93.6%
- Production rate of Alvocidib ([1]; pH4.0, 0 week): 2.2%
- Residual rate ([1]; pH4.0, 0 week): 97.5%
- Production rate of Alvocidib ([1]; pH4.0, 1 week): 12.8%
- Residual rate ([1]; pH4.0, 1 week): 86.7%
- Production rate of Alvocidib ([1]; pH4.0, 2 week): 21.1%
- Residual rate ([1]; pH4.0, 2 week): 78.3%
- Production rate of Alvocidib ([1]; pH4.0, 4 week): 36.2%
- Residual rate ([1]; pH4.0, 4 week): 63.0%
- Production rate of Alvocidib ([1]; pH5.0, 0 week): 13.2%
- Residual rate ([1]; pH5.0, 0 week): 86.4%
- Production rate of Alvocidib ([1]; pH5.0, 1 week): 72.5%
- Residual rate ([1]; pH5.0, 1 week): 25.7%
- Production rate of Alvocidib ([1]; pH5.0, 2 week): 90.1%
- Residual rate ([1]; pH5.0, 2 week): 8.1%
- Production rate of Alvocidib ([1]; pH5.0, 4 week): 97.1%
- Residual rate ([1]; pH5.0, 4 week): 1.1%
- Production rate of Alvocidib ([2]; pH5.0, 0 hr): 1.2%
- Residual rate ([2]; pH5.0, 0 hr): 97.3%
- Stability in buffer solution at pH 5 ([2]; pH 5, 37° C., up to 2 or 3 hours): unstable
- Conversion to Alvocidib at pH 5 within 3 hours ([2]; pH 5, 37° C., within 3 hours): mostly converted to Alvocidib
- Production rate of Alvocidib ([2]; pH5.0, 0.5 hr): 17.9%
- Residual rate ([2]; pH5.0, 0.5 hr): 80.3%
- Production rate of Alvocidib ([2]; pH5.0, 1 hr): 31.1%
- Residual rate ([2]; pH5.0, 1 hr): 66.8%
- Production rate of Alvocidib ([2]; pH5.0, 2 hr): 53.7%
- Residual rate ([2]; pH5.0, 2 hr): 45.6%
- Production rate of Alvocidib ([2]; pH5.0, 3 hr): 68.5%
- Residual rate ([2]; pH5.0, 3 hr): 30.7%
- Production rate of Alvocidib ([2]; pH5.5, 0 hr): 1.4%
- Residual rate ([2]; pH5.5, 0 hr): 97.2%
- Production rate of Alvocidib ([2]; pH5.5, 0.5 hr): 44.2%
- Residual rate ([2]; pH5.5, 0.5 hr): 53.8%
- Production rate of Alvocidib ([2]; pH5.5, 1 hr): 67.2%
- Residual rate ([2]; pH5.5, 1 hr): 30.3%
- Production rate of Alvocidib ([2]; pH5.5, 2 hr): 88.5%
- Residual rate ([2]; pH5.5, 2 hr): 8.7%
- Production rate of Alvocidib ([2]; pH5.5, 3 hr): 93.9%
- Residual rate ([2]; pH5.5, 3 hr): 2.9%
- Production rate of Alvocidib ([2]; pH6.0, 0 hr): 1.9%
- Residual rate ([2]; pH6.0, 0 hr): 96.7%
- Production rate of Alvocidib ([2]; pH6.0, 0.5 hr): 88.1%
- Residual rate ([2]; pH6.0, 0.5 hr): 9.0%
- Production rate of Alvocidib ([2]; pH6.0, 1 hr): 95.7%
- Residual rate ([2]; pH6.0, 1 hr): 1.2%
- Production rate of Alvocidib ([2]; pH6.0, 2 hr): 97.0%
- Residual rate ([2]; pH6.0, 2 hr): 0.0%
- Production rate of Alvocidib ([2]; pH6.0, 3 hr): 97.1%
- Residual rate ([2]; pH6.0, 3 hr): 0.0%
- Production rate of Alvocidib ([2]; pH6.5, 0 hr): 3.2%
- Residual rate ([2]; pH6.5, 0 hr): 95.4%
- Production rate of Alvocidib ([2]; pH6.5, 0.5 hr): 97.0%
- Residual rate ([2]; pH6.5, 0.5 hr): 0.0%
- Production rate of Alvocidib ([2]; pH6.5, 1 hr): 96.7%
- Residual rate ([2]; pH6.5, 1 hr): 0.0%
- Production rate of Alvocidib ([2]; pH6.5, 2 hr): 98.2%
- Residual rate ([2]; pH6.5, 2 hr): 0.0%
- Production rate of Alvocidib ([2]; pH6.5, 3 hr): 97.6%
- Residual rate ([2]; pH6.5, 3 hr): 0.0%
- Production rate of Alvocidib ([2]; pH7.0, 0 hr): 6.9%
- Residual rate ([2]; pH7.0, 0 hr): 91.7%
- Production rate of Alvocidib ([2]; pH7.0, 0.5 hr): 96.8%
- Residual rate ([2]; pH7.0, 0.5 hr): 0.0%
- Production rate of Alvocidib ([2]; pH7.0, 1 hr): 96.8%
- Residual rate ([2]; pH7.0, 1 hr): 0.0%
- Production rate of Alvocidib ([2]; pH7.0, 2 hr): 96.7%
- Residual rate ([2]; pH7.0, 2 hr): 0.0%
- Production rate of Alvocidib ([2]; pH7.0, 3 hr): 96.7%
- Residual rate ([2]; pH7.0, 3 hr): 0.0%
- Production rate of Alvocidib ([2]; pH7.4, 0 hr): 14.2%
- Residual rate ([2]; pH7.4, 0 hr): 84.4%
- Production rate of Alvocidib ([2]; pH7.4, 0.5 hr): 97.3%
- Residual rate ([2]; pH7.4, 0.5 hr): 0.0%
- Production rate of Alvocidib ([2]; pH7.4, 1 hr): 97.2%
- Residual rate ([2]; pH7.4, 1 hr): 0.0%
- Production rate of Alvocidib ([2]; pH7.4, 2 hr): 97.2%
- Residual rate ([2]; pH7.4, 2 hr): 0.0%
- Production rate of Alvocidib ([2]; pH7.4, 3 hr): 97.2%
- Residual rate ([2]; pH7.4, 3 hr): 0.0%
